Assay [1] addresses T1, Retinoic acid receptor alpha (Homo sapiens) (UniProt P10276).
T1 sequence (whole entry): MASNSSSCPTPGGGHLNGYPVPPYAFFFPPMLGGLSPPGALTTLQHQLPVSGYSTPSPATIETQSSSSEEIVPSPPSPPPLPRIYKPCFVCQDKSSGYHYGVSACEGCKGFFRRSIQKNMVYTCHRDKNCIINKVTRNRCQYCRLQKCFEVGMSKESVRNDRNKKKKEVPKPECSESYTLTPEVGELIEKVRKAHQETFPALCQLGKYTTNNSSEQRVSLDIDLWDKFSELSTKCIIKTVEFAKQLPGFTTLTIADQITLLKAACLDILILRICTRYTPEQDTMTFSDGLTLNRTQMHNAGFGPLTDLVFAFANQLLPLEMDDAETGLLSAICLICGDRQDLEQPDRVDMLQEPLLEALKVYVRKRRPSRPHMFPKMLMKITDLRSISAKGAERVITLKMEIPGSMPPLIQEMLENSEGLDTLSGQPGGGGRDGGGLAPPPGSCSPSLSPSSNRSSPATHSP
Description: Binding affinity for Retinoic acid receptor alpha relative to ATRA.

Assay [2] concerns the target T2, Retinoic acid receptor beta (Homo sapiens) (UniProt P10826).
T2 sequence (whole entry): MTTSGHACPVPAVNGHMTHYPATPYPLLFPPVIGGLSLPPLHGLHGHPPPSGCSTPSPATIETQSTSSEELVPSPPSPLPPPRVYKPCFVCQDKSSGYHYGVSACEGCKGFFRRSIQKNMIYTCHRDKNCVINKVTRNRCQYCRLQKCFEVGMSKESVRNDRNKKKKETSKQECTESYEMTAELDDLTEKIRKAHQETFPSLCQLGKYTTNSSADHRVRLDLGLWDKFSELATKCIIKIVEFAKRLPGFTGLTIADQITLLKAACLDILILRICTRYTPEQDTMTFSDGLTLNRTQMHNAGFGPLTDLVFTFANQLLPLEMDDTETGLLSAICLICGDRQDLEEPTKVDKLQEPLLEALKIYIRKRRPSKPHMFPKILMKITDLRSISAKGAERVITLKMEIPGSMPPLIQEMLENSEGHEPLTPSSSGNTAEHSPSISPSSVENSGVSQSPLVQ
Description: Binding affinity for Retinoic acid receptor beta relative to ATRA.

The target of assay [3] is T3, Retinoic acid receptor gamma (Homo sapiens) (UniProt P13631).
T3 sequence (whole entry): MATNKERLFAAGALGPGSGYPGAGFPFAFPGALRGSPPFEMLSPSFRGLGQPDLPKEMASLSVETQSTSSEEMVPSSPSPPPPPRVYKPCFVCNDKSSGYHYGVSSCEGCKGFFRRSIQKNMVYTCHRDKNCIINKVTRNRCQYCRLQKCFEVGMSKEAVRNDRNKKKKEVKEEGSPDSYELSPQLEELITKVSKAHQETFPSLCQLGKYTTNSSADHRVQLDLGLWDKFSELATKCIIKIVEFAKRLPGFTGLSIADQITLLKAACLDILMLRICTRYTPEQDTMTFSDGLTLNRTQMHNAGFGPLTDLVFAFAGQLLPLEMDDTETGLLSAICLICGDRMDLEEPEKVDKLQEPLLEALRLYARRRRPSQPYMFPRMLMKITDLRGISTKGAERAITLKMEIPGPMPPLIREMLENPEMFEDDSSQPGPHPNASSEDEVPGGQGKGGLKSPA
Nature of the assay: Binding affinity for Retinoic acid receptor gamma relative to ATRA.

Assay [4] concerns the target T3, Retinoic acid receptor gamma (Homo sapiens). Nature of the assay: Relative transcriptional activation in CV-1 cells expressing RAR gamma receptor compared to ATRA. In kind it is functional, cell-based. Particulars: Cercopithecidae.
The target of assay [5] is T1, Retinoic acid receptor alpha (Homo sapiens). Nature of the assay: Relative transcriptional activation in CV-1 cells expressing RAR alpha receptor compared to ATRA. Particulars: Cercopithecidae. It counts as functional, cell-based.
Assay [6] has as its target T2, Retinoic acid receptor beta (Homo sapiens). Description: Relative transcriptional activation in CV-1 cells expressing RAR beta receptor compared to ATRA. It counts as functional, cell-based. To be noted: Cercopithecidae.
Assay [7] addresses T1, Retinoic acid receptor alpha (Homo sapiens). Description: Binding affinity for Retinoic acid receptor alpha relative to ATRA; Not detectable.
In assay [8] the target is T2, Retinoic acid receptor beta (Homo sapiens). Nature of the assay: Relative transcriptional activation in CV-1 cells expressing RAR beta receptor compared to ATRA; Not detectable. It counts as functional, cell-based. To be noted: Cercopithecidae.
Assay [9] concerns the target T3, Retinoic acid receptor gamma (Homo sapiens). Nature of the assay: Relative transcriptional activation in CV-1 cells expressing RAR gamma receptor compared to ATRA; Not detectable. In kind it is functional, cell-based. Particulars: Cercopithecidae.
In a further assay the test system is HL-60. Description: Induction of HL-60 cell differentiation. In kind it is functional. To be noted: Homo sapiens.
In assay [10] the target is T1, Retinoic acid receptor alpha (Homo sapiens). Nature of the assay: Relative transcriptional activation in CV-1 cells expressing RAR alpha receptor compared to ATRA; Not detectable. In kind it is functional, cell-based. To be noted: Cercopithecidae.
For assay [11], the target named is T2, Retinoic acid receptor beta (Homo sapiens). Particulars: Cercopithecidae; CV-1.
Description: Transcriptional activation in CV-1 cells expressing RAR beta receptor
Assay [12] has as its target T1, Retinoic acid receptor alpha (Homo sapiens). Particulars: Cercopithecidae; CV-1.
Description: Transcriptional activation in CV-1 cells expressing RAR alpha receptor

For `Cc1ccc(C)c2cc(-c3ccc(-c4ccc(C(=O)O)cc4)[nH]3)ccc12`, the values for the Relative IC50 in assay [1], in [2] and in [3] were 24 nM, above 1000 nM and above 1000 nM, respectively. Besides, the Relative EC30 amounted to 2200 nM in [4], 2.8 nM in [5] and 250 nM in assay [6].
As to `Cc1cc(C)c2ccc(-c3ccc(-c4ccc(C(=O)O)cc4)[nH]3)cc2c1`, the Relative IC50 in [2], in [3] and in assay [7] was above 1000 nM throughout. For the same compound, the Relative EC30 in assay [8] is above 10000 nM; in assay [9], above 10000 nM; in [5], 90 nM.
Consider `CC(C)c1cccc2ccc(-c3ccc(-c4ccc(C(=O)O)cc4)[nH]3)cc12`, for which the Relative IC50 was below 1 nM in assay [1], above 1000 nM in [2] and 910 nM in assay [3]. The figures for the Relative EC30 in assay [4], in assay [5] and in assay [6] were 88 nM, 1.1 nM and 78 nM, respectively. The compound further yielded an EC30 in the assay with HL-60 of 100 nM.
`CC(/C=C/C=C(\C)c1ccc2c(C)ccc(C)c2c1)=C\C(=O)O`: the Relative IC50 was found to be 2.7 nM in assay [1], 49 nM in assay [2] and 227 nM in assay [3]. The Relative EC30 in [4] was 660 nM; in assay [5], 20 nM; in assay [6], 11 nM.
On to `O=C(O)c1ccc(-c2ccc(-c3ccc4cccc(-c5ccccc5)c4c3)[nH]2)cc1`, for which the figures for the Relative IC50 in assay [1], in assay [2] and in [3] were 1.4 nM, above 1000 nM and above 1000 nM, respectively. The Relative EC30 was above 10000 nM in assay [9], above 10000 nM in assay [5] and 880 nM in assay [6].
As for `Cc1cccc2ccc(-c3ccc(-c4ccc(C(=O)O)cc4)[nH]3)cc12`, the Relative IC50 in assay [1] is 15 nM; in assay [2], above 1000 nM; in assay [3], above 1000 nM. Besides, the Relative EC30 in assay [8] was above 10000 nM; in assay [9], above 10000 nM; in assay [5], 49 nM.
On to `Cc1c(C)c(C)c2cc(-c3ccc(-c4ccc(C(=O)O)cc4)[nH]3)ccc2c1C`, for which the Relative EC30 in [10], in assay [8] and in [9] was above 10000 nM throughout. Besides, the Relative IC50 in assay [2], in assay [3] and in assay [7] was above 1000 nM throughout.
As for `CC(/C=C/C=C(\C)c1ccc2c(c1)C(C)(C)CCC2(C)C)=C\C(=O)O`, the results for the Relative IC50 in [1], in assay [2] and in assay [3] were 0.49 nM, 0.34 nM and 0.67 nM, respectively. In addition, the Relative EC30 in [4] came to 0.24 nM; in [5], 0.27 nM; in [6], 0.2 nM.
Regarding `CC1=C(/C=C/C(C)=C/C=C/C(C)=C/C(=O)O)C(C)(C)CCC1`, the EC30 was determined as 0.69 nM in assay [11] and 1.1 nM in assay [12].
For the compound `Cc1ccc(C)c2c1C=C(c1ccc(-c3ccc(C(=O)O)cc3)[nH]1)CO2`, the results for the Relative IC50 in assay [1], in assay [2] and in assay [3] were 9.7 nM, above 1000 nM and above 1000 nM, respectively. For the same compound, the Relative EC30 was 3600 nM in assay [4], 1.8 nM in [5] and 240 nM in assay [6].
Consider `Cc1cccc2c1C=C(c1ccc(-c3ccc(C(=O)O)cc3)[nH]1)CO2`, for which the Relative IC50 is 50 nM in assay [1], above 1000 nM in [2] and above 1000 nM in [3]. In addition, the Relative EC30 in [4] was determined as 5250 nM; in [5], 4.5 nM; in [6] it was 1030 nM.
